Test results taken from patent US3989835A, “Method of using 6-substituted amino phenyl-2,3,5,6-tetra-hydro[2,1-b]thiazoles for controlling gastrointestinal nematodes” (American Cyanamid Company, priority 1974, dated 1976).
Counter-ions that a name gives are not always drawn. Like-named read-outs stand apart in the source and are kept apart here.

Assays:
[1] = tested on: Nematospiroides dubius; test: Anthelmintic efficacy against N. dubius in mice, single oral dose; format: in vivo, Nematospiroides dubius (in albino female mice); conditions: for inhibition in vivo at 40 mg/kg: single oral dose 40 mg./Kg.; for inhibition in vivo at 60 mg/kg: single oral dose 60 mg./Kg.; for inhibition in vivo at 2 mg/kg: single oral dose 2.0 mg./Kg.; for inhibition in vivo at 5 mg/kg: single oral dose 5.0 mg./Kg.; for inhibition in vivo at 100 mg/kg: single oral dose 100 mg./Kg.; for inhibition in vivo at 50 mg/kg: single oral dose 50 mg./Kg.; for inhibition in vivo at 20 mg/kg: single oral dose 20 mg./Kg.
Description: Albino female mice are each inoculated with about 20 infectious larvae of Nematospiroides dubius. This nematode is a representative of the economical important trichostrongylis worms of ruminants and other hosts, and of nematodes in general. Twenty-two days after inoculation, groups of four randomly selected mice containing adult N. dubius are given single oral doses of test compounds dissolved or suspended in 0.4 ml. of water per 20 gram mouse. At 26 or 27 days after inoculation, treated mice and in each test four randomly selected groups of untreated mice are necropsied. The number of worms in the small intestine of each mouse are determined by microscopic examination. Average worm numbers for each treated group and for the untreated controls are computed and the percent efficacy determined by the customary formula:
(Average Worms in Control - Average Worms in Treated)/(Average Worms in Control) X 100.

[2] = in vivo; conditions: for LD50: mouse, in vivo, po; for Approx. LD50 /ED50: chemotherapeutic index, mouse oral, N. dubius; for Dead/Total: mice
Text: Data on the acute oral toxicity to mice of various single oral doses of the above compounds and several analogs were obtained by conventional procedures, (Table IX hereinafter).

[3] = Heligmosomoides polygyrus, po, molar-adjusted, read-out: Percent Nematospiroides Activity
[4] = LD50, mice, adjusted to molar equivalents of tetramisole free base
[5] = Heligmosomoides polygyrus, po, continuation of Table X (R1/R4 disubstituted), read-out: ED50
[6] = Heligmosomoides polygyrus, po, mouse oral, Table IX, read-out: Approx. ED50 vs. N. dubius
[7] = Approx. LD50, mouse oral, Table IX
[8] = Heligmosomoides polygyrus, po, single oral dose 10 mg./Kg., molar-adjusted, read-out: Percent Nematospiroides Activity
[9] = Heligmosomoides polygyrus, po, as Base, single oral dose, mice, > indicates inactive at dose shown, read-out: Approx. ED50
[10] = as Base, single oral dose, mice, > indicates inactive at dose shown
[11] = as Base, single oral dose, mice, > indicates inactive at dose shown, hydrochloride

Structure (SMILES): CC(C)N(C)c1cccc(C2CN3CCSC3=N2)c1 (racemic) [CH3 N--CH(CH3)2, 6-[m-(isopropylmethylamino)phenyl]-2,3,5,6-tetrahydroimidazo[2,1-b]thiazol]
- inhibition in vivo at 40 mg/kg [1, 3]: 78%
- inhibition in vivo at 60 mg/kg [1, 3]: 88%
- LD50 [2, 4]: 40 to 60 mg/kg

Structure (SMILES): CC(=O)Nc1ccc(Br)c(C2CN3CCSC3=N2)c1 (racemic) [R1 =COCH3 R4 =Br]
- ED50 [1, 5]: 30 mg/kg
- ED50 [1, 6]: 30 mg/kg
- LD50 [2, 7]: > 100 mg/kg

Structure (SMILES): Nc1ccc(Br)c(C2CN3CCSC3=N2)c1 (racemic) [R1 =H R4 =Br, dl-6-(5-amino-2-bromophenyl)-2,3,5,6-tetrahydroimidazo[2,1-b]thiazole, dihydrochloride]
- ED50 [1, 5]: 5 mg/kg
- ED50 [1, 6]: 5 mg/kg
- inhibition in vivo at 4 mg/kg ([1]; Heligmosomoides polygyrus, po, single oral dose 4.0 mg./Kg., molar-adjusted, read-out: Percent Nematospiroides Activity): 43%
- inhibition in vivo at 10 mg/kg [1, 8]: 100%
- Approx. LD50 /ED50 ([2]; Table IX): 8
- LD50 [2, 7]: 40 mg/kg
- LD50 [2, 4]: ~50 mg/kg
- Dead/Total ([2]; single oral dose 20 Mg./Kg.): 0/6
- Dead/Total ([2]; single oral dose 40 Mg./Kg.): 2/6
- Dead/Total ([2]; single oral dose 80 Mg./Kg.): 6/6

Structure (SMILES): Nc1ccccc1C1CN2CCSC2=N1 (racemic) [dl 2HCl NH2 ortho, reference compound]
- ED50 [1, 9]: > 100 mg/kg

Structure (SMILES): S=C=Nc1cccc(C2CN3CCSC3=N2)c1 (racemic) [dl Base N=C=S meta, reference compound]
- ED50 ([1]; Heligmosomoides polygyrus, po, read-out: Approx. ED50): 20 mg/kg

Structure (SMILES): COc1cccc(C2CN3CCSC3=N2)c1 (racemic) [dl HBr OCH3 meta, reference compound]
- ED50 [1, 9]: > 10 mg/kg

Structure (SMILES): Cc1cccc(C2CN3CCSC3=N2)c1 (racemic) [dl HCl CH3 meta, reference compound]
- ED50 [1, 9]: > 10 mg/kg

Structure (SMILES): O=[N+]([O-])c1cccc(C2CN3CCSC3=N2)c1 (racemic) [dl HCl NO2 meta, dl-6-(m-nitrophenyl)-2,3,5,6-tetrahydroimidazo[2,1-b]thiazole hydrochloride, reference compound]
- ED50 [1, 9]: 15 mg/kg

Structure (SMILES): O=[N+]([O-])c1ccccc1C1CN2CCSC2=N1 (racemic) [dl HCl NO2 ortho, reference compound]
- ED50 [1, 9]: > 100 mg/kg

Structure (SMILES): O=[N+]([O-])c1cccc(C2CN3C=CSC3=N2)c1 (racemic) [dl HClO4 NO2 * meta, reference compound]
- ED50 [1, 9]: 25 mg/kg

Structure (SMILES): Oc1cccc(C2CN3CCSC3=N2)c1 (racemic) [dl OH meta, reference compound]
- ED50 [1, 9]: > 10 mg/kg

Structure (SMILES): CCC(=O)Nc1cccc(C2CN3CCSC3=N2)c1 (racemic) [m-NH--CO--C2 H5 dl]
- ED50 [1, 9]: 2 mg/kg
- ED50 [1, 6]: 2 mg/kg
- inhibition in vivo at 2 mg/kg [1, 3]: 76%
- inhibition in vivo at 5 mg/kg [1, 3]: 100%
- inhibition in vivo at 10 mg/kg [1, 8]: 100%
- Approx. LD50 /ED50 ([2]; Table IX): 20
- LD50 [2, 7]: < 40 mg/kg
- LD50 [2, 4]: 30 to 40 mg/kg
- Dead/Total ([2]; single oral dose 40 Mg./Kg.): 4/5
- Dead/Total ([2]; single oral dose 60 Mg./Kg.): 4/6
- Dead/Total ([2]; single oral dose 80 Mg./Kg.): 5/5
- Dead/Total ([2]; single oral dose 100 Mg./Kg.): 6/6

Structure (SMILES): CCCC(=O)Nc1cccc(C2CN3CCSC3=N2)c1 (racemic) [m-NH--CO--C3 H7n dl]
- ED50 [1, 9]: 2 mg/kg
- ED50 [1, 6]: 2 mg/kg
- inhibition in vivo at 1.25 mg/kg ([1]; Heligmosomoides polygyrus, po, single oral dose 1.25 mg./Kg., molar-adjusted, read-out: Percent Nematospiroides Activity): 43%
- inhibition in vivo at 2 mg/kg [1, 3]: 58%
- inhibition in vivo at 5 mg/kg [1, 3]: 99%
- inhibition in vivo at 10 mg/kg [1, 8]: 100%
- Approx. LD50 /ED50 ([2]; Table IX): 20
- LD50 [2, 7]: 40 mg/kg
- LD50 [2, 4]: 30 to 40 mg/kg
- Dead/Total ([2]; single oral dose 40 Mg./Kg.): 3/5
- Dead/Total ([2]; single oral dose 60 Mg./Kg.): 4/5
- Dead/Total ([2]; single oral dose 80 Mg./Kg.): 4/5
- Dead/Total ([2]; single oral dose 100 Mg./Kg.): 5/5

Structure (SMILES): CC(C)(C)C(=O)Nc1cccc(C2CN3C=CSC3=N2)c1 (stereo not drawn) [5,6-dihydro HN-CO-C(CH3)3, 3'-(5,6-dihydroimidazo[2,1-b]thiazol-6-yl)pivalanilide]
- ED50 [1, 9]: 7.5 mg/kg
- inhibition in vivo at 5 mg/kg [1, 3]: 35%
- inhibition in vivo at 10 mg/kg [1, 8]: 80%

Structure (SMILES): CC(C)C(=O)Nc1cccc(C2CN3C=CSC3=N2)c1 (stereo not drawn) [5,6-dihydro HN-CO-CH(CH3)2, 3'(5,6-dihydroimidazo[2,1-b]thiazol-6-yl)isobutyranilide]
- ED50 [1, 9]: 7.5 mg/kg
- inhibition in vivo at 5 mg/kg [1, 3]: 32%
- inhibition in vivo at 10 mg/kg [1, 8]: 68%

Structure (SMILES): CC(C)N(C=O)c1cccc(C2CN3CCSC3=N2)c1 (stereo not drawn) [(CH3)2 CH--N--CHO, N-isopropyl-3'-(2,3,5,6-tetrahydroimidazo[2,1-b]thiazol-6-yl) formanilide dihydrochloride]
- inhibition in vivo at 40 mg/kg [1, 3]: 99%
- inhibition in vivo at 60 mg/kg [1, 3]: 100%

Structure (SMILES): CC(=O)Nc1cccc(C2CN3CCSC3=N2)c1 (stereo not drawn) [H--N--CO--CH3 l-]
- Percent Nematospiroides Activity ([1]; single oral dose 4.0 mg./Kg., molar-adjusted): 51%
- Percent Nematospiroides Activity ([1]; single oral dose 10 mg./Kg., molar-adjusted): 100%

Structure (SMILES): CS(=O)(=O)Nc1cccc(C2CN3CCSC3=N2)c1 (stereo not drawn) [H--N--SO2 CH3]
- inhibition in vivo at 100 mg/kg [1, 3]: 100%

Structure (SMILES): CC(CO)Nc1cccc(C2CN3CCSC3=N2)c1 (stereo not drawn) [HN--CH(CH3)CH2 OH]
- inhibition in vivo at 5 mg/kg [1, 3]: 1%
- inhibition in vivo at 10 mg/kg [1, 8]: 1%
- inhibition in vivo at 50 mg/kg [1, 3]: 67%

Structure (SMILES): c1ccc(CNc2cccc(C3CN4CCSC4=N3)c2)cc1 (stereo not drawn) [Table XII b1716]
- inhibition in vivo at 5 mg/kg [1, 3]: 56%
- inhibition in vivo at 10 mg/kg [1, 8]: 91%
- inhibition in vivo at 20 mg/kg [1, 3]: 95%

Structure (SMILES): COc1ccc(CNc2cccc(C3CN4CCSC4=N3)c2)cc1 (stereo not drawn) [Table XII b1718]
- inhibition in vivo at 10 mg/kg [1, 8]: 40%
- inhibition in vivo at 20 mg/kg [1, 3]: 100%
- inhibition in vivo at 50 mg/kg [1, 3]: 100%
- inhibition in vivo at 100 mg/kg [1, 3]: 100%

Structure (SMILES): O=C(Cc1ccccc1)Nc1cccc(C2CN3CCSC3=N2)c1 (stereo not drawn) [Table XII b1825]
- inhibition in vivo at 2 mg/kg [1, 3]: 44%
- inhibition in vivo at 5 mg/kg [1, 3]: 76%
- inhibition in vivo at 10 mg/kg [1, 8]: 95%

Structure (SMILES): Nc1ccc(Br)c(C2CN3CCSC3=N2)c1 (stereo not drawn) [Table XIII b1902]
- inhibition in vivo at 30 mg/kg ([1]; Heligmosomoides polygyrus, po, single oral dose 30 mg./Kg., molar-adjusted, read-out: Percent Nematospiroides Activity): 37%
- inhibition in vivo at 60 mg/kg [1, 3]: 97%

Structure (SMILES): CC(=O)Nc1ccc(Br)c(C2CN3CCSC3=N2)c1 (stereo not drawn) [Table XIII b1903]
- inhibition in vivo at 50 mg/kg [1, 3]: 100%
- inhibition in vivo at 100 mg/kg [1, 3]: 100%

Structure (SMILES): Nc1cccc(C2CN3CCSC3=N2)c1 (stereo not drawn) [d 2HCl NH2 meta, d-2,3,5,6-Tetrahydro-6-(m-aminophenyl)imidazo[2,1-b]thiazoleDihydrochloride]
- Approx. ED50 [1, 10]: 10 Mg./Kg.

Structure (SMILES): Nc1ccc(C2CN3CCSC3=N2)cc1 (stereo not drawn) [d 2HCl NH2 para, reference compound]
- Approx. ED50 [1, 10]: > 20 Mg./Kg.

Structure (SMILES): O=CNc1ccc(C2CN3CCSC3=N2)cc1 (stereo not drawn) [d Base NH--HCO para, reference compound]
- Approx. ED50 [1, 10]: > 40 Mg./Kg.

Structure (SMILES): O=[N+]([O-])c1cccc(C2CN3CCSC3=N2)c1 (stereo not drawn) [d HCl NO2 meta, d-6-(m-nitrophenyl)-2,3,5,6-tetrahydroimidazo[2,1-b]thiazole hydrochloride, reference compound]
- Approx. ED50 [1, 11]: > 30 Mg./Kg.

Structure (SMILES): O=[N+]([O-])c1ccc(C2CN3CCSC3=N2)cc1 (stereo not drawn) [d HCl NO2 para, reference compound]
- Approx. ED50 [1, 10]: > 200 Mg./Kg.

Structure (SMILES): Nc1ccc(C2CN3CCSC3=N2)cc1 (stereo not drawn) [l 2HCl NH2 para, reference compound]
- ED50 [1, 9]: > 10 mg/kg

Structure (SMILES): CNc1ccc(C2CN3CCSC3=N2)cc1 (stereo not drawn) [l 2HCl NH--CH3 para, reference compound]
- ED50 [1, 9]: > 50 mg/kg

Structure (SMILES): O=CNc1ccc(C2CN3CCSC3=N2)cc1 (stereo not drawn) [l Base NH--HCO para, reference compound]
- Approx. ED50 [1, 10]: > 10 Mg./Kg.

Structure (SMILES): O=[N+]([O-])c1cccc(C2CN3CCSC3=N2)c1 (stereo not drawn) [l HCl NO2 meta, l-6-(m-Nitrophenyl)-2,3,5,6-tetrahydroimidazo[2,1-b]thiazole hydrochloride, reference compound]
- Approx. ED50 [1, 11]: 12 Mg./Kg.

Structure (SMILES): O=[N+]([O-])c1ccc(C2CN3CCSC3=N2)cc1 (stereo not drawn) [l HCl NO2 para, reference compound]
- Approx. ED50 [1, 10]: 40 Mg./Kg.
